Where two headings read alike, the source gives them in different places. Marks after values point to notes of the source that are not given here.
How the values were obtained:
[1] = Relaxivity of the compound in water; type: physicochemical; conditions: deionized water
Experimental: Test example 1: Relaxivity of the compound in water
Niumag (Suzhou) Nuclear Magnetic Resonance Contrast Agent Relaxivity Analyser with a 0.5 T magnetic field
Bruker Small Animal Magnetic Resonance Imaging System (BioSpec 70/20 USR) with a 7 T magnetic field
1 mL of the test sample was placed in a 1.5 mL EP (eppendorf) tube, and the longitudinal relaxation time T1 and transverse relaxation time T2 under different magnetic field conditions were measured separately using the Niumag (Suzhou) Nuclear Magnetic Resonance Contrast Agent Relaxivity Analyser with a 0.5 T magnetic field. The test sample was loaded into a 0.2 mL sample tube until full, and the longitudinal relaxation time T1 and transverse relaxation time T2 under different magnetic field conditions were measured separately using the Bruker Small Animal Magnetic Resonance Imaging System (BioSpec 70/20 USR) with a 7 T magnetic field.
(§1) Based on the relaxation times T1 and T2 of samples at different concentrations, the relaxivities r1 and r2 were calculated respectively. The relaxivity was calculated according to the following equation: r = (1)/(ΔT)/C, [formula] r: relaxivity; T: relaxation time (s); C: contrast agent concentration (mM).

[2] = Metal transfer stability test in the presence of zinc ions; type: physicochemical; conditions: equal volumes 2.5 mM contrast agent and 2.5 mM ZnCl2, phosphate buffer, 37°C, 0.5 T
Experimental: Test example 4: Metal transfer stability test of compounds in the presence of zinc ions • 1 . Experimental protocol • 2. […] Experiment instruments: VTMR20-010V-I Nuclear Magnetic Resonance Cross-Linking Density Imaging Analyser • 4. Experimental method
A 2.5 mM solution of contrast agent solutions and a 2.5 mM solution of zinc chloride were respectively prepared in phosphate buffer (0.026 mol/L KH2PO4 and 0.041 mol/L Na2HPO4). An equal volume of a 2.5 mM ZnCl2 solution was added to the a 2.5 mM gadolinium contrast agent solution, and the mixture was mixed by shaking. This moment of complete mixing was designated as time zero (t = 0). Immediately thereafter, a 0.5 mL aliquot was withdrawn and subjected to measurement of the longitudinal relaxation time, T1(0), at 37°C and a magnetic field strength of 0.5 T. The mixed solution was then incubated at 37°C. 0.5 mL of the solution was taken at time points of 5 min, 180 min, 1440 min and 5760 min, respectively, to determine T1(t) at different time points. The ratio of the relaxivity at different time points to the initial relaxivity at time 0, namely R1(t)/R1(0), was calculated.

[3] = Relaxivity of compounds in human plasma; type: physicochemical; conditions: human plasma containing sodium heparin, 0.5 T
Experimental: as §1

[4] = test system: canine plasma proteins; conditions: dog, 1000 µM
Experimental: After the preparation of plasma samples, 0.5 mL of plasma samples were transferred into ultracentrifugation tubes, with 3 replicates per concentration. After incubation in a CO2 incubator at 37°C for 0.5 h, the samples were subjected to ultracentrifugation at 627,000 g for 3 hours at 37°C. After centrifugation, 100 µL of samples were taken from the central layer of the ultracentrifugation tubes and mixed with 100 µL of blank plasma. The samples were stored at -70°C for subsequent determination.
The plasma protein binding rates of analytes at different concentration levels were calculated using the following formulas: [formula] Binding rate% = 100%−Free rate%. [formula]

[5] = hydrochloric acid pH 1.2, 37°C, 8 × 10^-6 M, 0 h
[6] = hydrochloric acid, 24 h, 8 µM, pH 1.2
[7] = hydrochloric acid, 48 h, 8 µM, pH 1.2
[8] = hydrochloric acid, 96 h, 8 µM, pH 1.2

Gadobutrol
Relaxivity r1 ([1]; 0.5 T): 4.4 mM⁻¹ s⁻¹
Relaxivity r1 ([1]; 7 T): 3.5 mM⁻¹ s⁻¹
Gd^3+ Dissociation rate (%) [5]: BLQ
Gd^3+ Dissociation rate (%) [6]: 73.5%
Gd^3+ Dissociation rate (%) [7]: 70.1%
Gd^3+ Dissociation rate (%) [8]: 64.6%
R1(t)/R1(0) ([2]; 0 min): 1
R1(t)/R1(0) ([2]; 5 min): 0.93
R1(t)/R1(0) ([2]; 180 min): 0.82
R1(t)/R1(0) ([2]; 1440 min): 0.96
R1(t)/R1(0) ([2]; 5760 min): 0.90
Relaxivity r1 [3]: 7.5 mM⁻¹ s⁻¹

Gadodiamide
R1(t)/R1(0) ([2]; 0 min): 1
R1(t)/R1(0) ([2]; 5 min): 1.07
R1(t)/R1(0) ([2]; 180 min): 0.59
R1(t)/R1(0) ([2]; 1440 min): 0.59
R1(t)/R1(0) ([2]; 5760 min): 0.38

Gadopiclenol [RC1]
Relaxivity r1 ([1]; 0.5 T): 11.7 mM⁻¹ s⁻¹
Relaxivity r1 ([1]; 7 T): 6.3 mM⁻¹ s⁻¹
Gd^3+ Dissociation rate (%) [5]: BLQ
Gd^3+ Dissociation rate (%) [6]: 24.7%
Gd^3+ Dissociation rate (%) [7]: 35.6%
Gd^3+ Dissociation rate (%) [8]: 37.8%
Average% (binding rate) [4]: 0* %

Source: patent publication EP4772508A1, “MACROCYCLIC COMPOUND AND USE THEREOF” (Jiangsu Hengrui Pharmaceuticals Co., Ltd., priority 2023, dated 2025)
